A value given as a limit tells only on which side of the number the result lay.

The assay addresses T1, human IKK-2 (rhIKK-2 homodimer) (Homo sapiens, UniProt O14920).
T1 construct: FLAG (DYKDDDDKD) (C); made in house; host or cells: insect cells (baculovirus, pFastBac)
T1 sequence (O14920 1-756): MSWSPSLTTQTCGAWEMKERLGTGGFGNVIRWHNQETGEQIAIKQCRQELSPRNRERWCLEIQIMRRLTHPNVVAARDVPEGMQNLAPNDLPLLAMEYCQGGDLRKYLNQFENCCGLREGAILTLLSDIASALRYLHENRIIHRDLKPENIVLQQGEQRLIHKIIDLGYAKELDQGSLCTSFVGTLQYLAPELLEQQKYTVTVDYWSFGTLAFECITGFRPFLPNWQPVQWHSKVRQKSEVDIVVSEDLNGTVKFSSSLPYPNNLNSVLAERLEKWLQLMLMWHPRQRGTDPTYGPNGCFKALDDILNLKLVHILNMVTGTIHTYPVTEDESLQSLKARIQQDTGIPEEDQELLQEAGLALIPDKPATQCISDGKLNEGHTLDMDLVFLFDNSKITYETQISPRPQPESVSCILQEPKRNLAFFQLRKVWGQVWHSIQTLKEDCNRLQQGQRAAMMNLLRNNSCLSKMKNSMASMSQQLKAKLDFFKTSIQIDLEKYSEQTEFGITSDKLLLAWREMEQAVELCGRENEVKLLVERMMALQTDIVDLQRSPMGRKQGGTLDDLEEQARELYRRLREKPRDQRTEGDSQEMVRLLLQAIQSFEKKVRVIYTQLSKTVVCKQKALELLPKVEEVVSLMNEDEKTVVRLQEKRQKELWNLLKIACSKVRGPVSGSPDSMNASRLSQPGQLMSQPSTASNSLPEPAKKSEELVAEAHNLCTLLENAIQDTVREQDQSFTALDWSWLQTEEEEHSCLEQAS
Briefly: IKK-2 Resin Enzyme Assay (Human IKK-2 Enzyme Assay). Type of assay: biochemical. Particulars: human IKK-2, resin enzyme assay; read-out: IC50 (μM) hIKK-2. In short, it runs like this: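 C-terminally FLAG-tagged human IKK-2 homodimer, baculovirus-expressed in insect cells and anti-FLAG purified. Reaction mix: 5 μM biotinylated IκBα peptide (Ser32/Ser36 region), 1 μM ATP with [γ-33P]ATP, 2 mM MgCl2, 2 mM MnCl2, 10 mM NaF, 1 mM DTT, 25 mM HEPES pH 7.6. Incubated 30 min at 25 °C; IC50 derived.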
Take `CCN(CC)C(=O)COc1cccc(-c2ccc(-n3cc(NC(N)=O)c(C(N)=O)n3)cc2)c1` [Example 336, 4-[(aminocarbonyl)amino]-1-{3′-[2-(diethylamino)-2-oxoethoxy]-1,1′-biphenyl-4-yl}-1H-pyrazole-3-carboxamide]: the IC50 came to 0.42 µM. The result for `NC(=O)Nc1cn(-c2ccc(B(O)O)cc2)nc1C(N)=O` [Example 337, 4-{3-(aminocarbonyl)-4-[(aminocarbonyl)amino]-1H-pyrazol-1-yl}phenylboronic acid] reads 0.75 µM; that for `NC(=O)CCc1cccc(-c2ccc(-n3cc(NC(N)=O)c(C(N)=O)n3)cc2)c1` [Example 338, 4-[(aminocarbonyl)amino]-1-[3′-(3-amino-3-oxopropyl)-1,1′-biphenyl-4-yl]-1H-pyrazole-3-carboxamide], 0.62 µM; that for `NC(=O)Nc1cn(-c2cccc(-c3ccccc3)c2)nc1C(N)=O` [Example 339, 4-[(aminocarbonyl)amino]-1-(1,1′-biphenyl-3-yl)-1H-pyrazole-3-carboxamide], above 20 µM. The result for `Cc1cccc(-c2cccc(-n3cc(NC(N)=O)c(C(N)=O)n3)c2)c1` [Example 340, 4-[(aminocarbonyl)amino]-1-(3′-methyl-1,1′-biphenyl-3-yl)-1H-pyrazole-3-carboxamide] reads above 20 µM; that for `N#Cc1cccc(-c2cccc(-n3cc(NC(N)=O)c(C(N)=O)n3)c2)c1` [Example 341, 4-[(aminocarbonyl)amino]-1-(3′-cyano-1,1′-biphenyl-3-yl)-1H-pyrazole-3-carboxamide], 0.984 µM. The same measure for `CCc1ccc(-c2cccc(-n3cc(NC(N)=O)c(C(N)=O)n3)c2)cc1` [Example 342, 4-[(aminocarbonyl)amino]-1-(4′-ethyl-1,1′-biphenyl-3-yl)-1H-pyrazole-3-carboxamide]: above 20 µM; for `COc1cccc(-c2cccc(-n3cc(NC(N)=O)c(C(N)=O)n3)c2)c1` [Example 343, 4-[(aminocarbonyl)amino]-1-(3′-methoxy-1,1′-biphenyl-3-yl)-1H-pyrazole-3-carboxamide]: 5.18 µM. As to `COc1ccc(-c2cccc(-n3cc(NC(N)=O)c(C(N)=O)n3)c2)cc1` [Example 344, 4-[(aminocarbonyl)amino]-1-(4′-methoxy-1,1′-biphenyl-3-yl)-1H-pyrazole-3-carboxamide], the IC50 is above 20 µM. The same measure for `Cc1cc(F)ccc1-c1cccc(-n2cc(NC(N)=O)c(C(N)=O)n2)c1` [Example 345, 4-[(aminocarbonyl)amino]-1-(4′-fluoro-2′-methyl-1,1′-biphenyl-3-yl)-1H-pyrazole-3-carboxamide]: above 20 µM; for `Cc1cc(-c2cccc(-n3cc(NC(N)=O)c(C(N)=O)n3)c2)ccc1F` [Example 346, 4-[(aminocarbonyl)amino]-1-(4′-fluoro-3′-methyl-1,1′-biphenyl-3-yl)-1H-pyrazole-3-carboxamide]: above 20 µM; for `NC(=O)Nc1cn(-c2cccc(-c3cccc(Cl)c3)c2)nc1C(N)=O` [Example 347, 4-[(aminocarbonyl)amino]-1-(3′-chloro-1,1′-biphenyl-3-yl)-1H-pyrazole-3-carboxamide]: above 20 µM. The result for `NC(=O)Nc1cn(-c2cccc(-c3ccc(Cl)cc3)c2)nc1C(N)=O` [Example 348, 4-[(aminocarbonyl)amino]-1-(4′-chloro-1,1′-biphenyl-3-yl)-1H-pyrazole-3-carboxamide] reads above 20 µM; that for `NC(=O)Nc1cn(-c2cccc(-c3ccc(F)c(F)c3)c2)nc1C(N)=O` [Example 349, 4-[(aminocarbonyl)amino]-1-(3′,4′-difluoro-1,1′-biphenyl-3-yl)-1H-pyrazole-3-carboxamide], above 20 µM; that for `NC(=O)Nc1cn(-c2cccc(-c3cc(F)cc(F)c3)c2)nc1C(N)=O` [Example 350, 4-[(aminocarbonyl)amino]-1-(3′,5′-difluoro-1,1′-biphenyl-3-yl)-1H-pyrazole-3-carboxamide], above 20 µM. The result for `CC(=O)c1cccc(-c2cccc(-n3cc(NC(N)=O)c(C(N)=O)n3)c2)c1` [Example 351, 1-(3′-acetyl-1,1′-biphenyl-3-yl)-4-[(aminocarbonyl)amino]-1H-pyrazole-3-carboxamide] reads above 20 µM; that for `CC(C)c1cccc(-c2cccc(-n3cc(NC(N)=O)c(C(N)=O)n3)c2)c1` [Example 352, 4-[(aminocarbonyl)amino]-1-(3′-isopropyl-1,1′-biphenyl-3-yl)-1H-pyrazole-3-carboxamide], above 20 µM; that for `CC(C)c1ccc(-c2cccc(-n3cc(NC(N)=O)c(C(N)=O)n3)c2)cc1` [Example 353, 4-[(aminocarbonyl)amino]-1-(4′-isopropyl-1,1′-biphenyl-3-yl)-1H-pyrazole-3-carboxamide], above 20 µM.

For `CCOc1cccc(-c2cccc(-n3cc(NC(N)=O)c(C(N)=O)n3)c2)c1` [Example 354, 4-[(aminocarbonyl)amino]-1-(3′-ethoxy-1,1′-biphenyl-3-yl)-1H-pyrazole-3-carboxamide], the IC50 was above 20 µM. The result for `CCOc1ccc(-c2cccc(-n3cc(NC(N)=O)c(C(N)=O)n3)c2)cc1` [Example 355, 4-[(aminocarbonyl)amino]-1-(4′-ethoxy-1,1′-biphenyl-3-yl)-1H-pyrazole-3-carboxamide] reads 6.15 µM. The same measure for `CSc1ccccc1-c1cccc(-n2cc(NC(N)=O)c(C(N)=O)n2)c1` [Example 356, 4-[(aminocarbonyl)amino]-1-[2′-(methylthio)-1,1′-biphenyl-3-yl]-1H-pyrazole-3-carboxamide]: above 20 µM. The result for `CSc1cccc(-c2cccc(-n3cc(NC(N)=O)c(C(N)=O)n3)c2)c1` [Example 357, 4-[(aminocarbonyl)amino]-1-[3′-(methylthio)-1,1′-biphenyl-3-yl]-1H-pyrazole-3-carboxamide] reads above 20 µM. On to `CSc1ccc(-c2cccc(-n3cc(NC(N)=O)c(C(N)=O)n3)c2)cc1` [Example 358, 4-[(aminocarbonyl)amino]-1-[4′-(methylthio)-1,1′-biphenyl-3-yl]-1H-pyrazole-3-carboxamide], for which the IC50 stood at 8.57 µM. The result for `COc1ccc(-c2cccc(-n3cc(NC(N)=O)c(C(N)=O)n3)c2)cc1F` [Example 359, 4-[(aminocarbonyl)amino]-1-(3′-fluoro-4′-methoxy-1,1′-biphenyl-3-yl)-1H-pyrazole-3-carboxamide] reads 1.18 µM; that for `NC(=O)Nc1cn(-c2cccc(-c3cccc4ccccc34)c2)nc1C(N)=O` [Example 360, 4-[(aminocarbonyl)amino]-1-[3-(1-naphthyl)phenyl]-1H-pyrazole-3-carboxamide], above 20 µM; that for `NC(=O)Nc1cn(-c2cccc(-c3ccc(F)c(Cl)c3)c2)nc1C(N)=O` [Example 361, 4-[(aminocarbonyl)amino]-1-(3′-chloro-4′-fluoro-1,1′-biphenyl-3-yl)-1H-pyrazole-3-carboxamide], above 20 µM. The result for `CC(C)(C)c1ccc(-c2cccc(-n3cc(NC(N)=O)c(C(N)=O)n3)c2)cc1` [Example 362, 4-[(aminocarbonyl)amino]-1-(4′-tert-butyl-1,1′-biphenyl-3-yl)-1H-pyrazole-3-carboxamide] reads above 20 µM; that for `CC(C)Cc1ccc(-c2cccc(-n3cc(NC(N)=O)c(C(N)=O)n3)c2)cc1` [Example 363, 4-[(aminocarbonyl)amino]-1-(4′-isobutyl-1,1′-biphenyl-3-yl)-1H-pyrazole-3-carboxamide], above 20 µM; that for `CCCCc1ccc(-c2cccc(-n3cc(NC(N)=O)c(C(N)=O)n3)c2)cc1` [Example 364, 4-[(aminocarbonyl)amino]-1-(4′-butyl-1,1′-biphenyl-3-yl)-1H-pyrazole-3-carboxamide], 16.2 µM.

For `COc1ccc(Cl)cc1-c1cccc(-n2cc(NC(N)=O)c(C(N)=O)n2)c1` [Example 365, 4-[(aminocarbonyl)amino]-1-(5′-chloro-2′-methoxy-1,1′-biphenyl-3-yl)-1H-pyrazole-3-carboxamide], the IC50 worked out at 11.6 µM.

Take `NC(=O)Nc1cn(-c2cccc(-c3ccccc3C(F)(F)F)c2)nc1C(N)=O` [Example 366, 4-[(aminocarbonyl)amino]-1-[2′-(trifluoromeethyl)-1,1′-biphenyl-3-yl]-1H-pyrazole-3-carboxamide]: the IC50 is above 20 µM. The same measure for `NC(=O)Nc1cn(-c2cccc(-c3cccc(C(F)(F)F)c3)c2)nc1C(N)=O` [Example 367, 4-[(aminocarbonyl)amino]-1-[3′-(trifluoromethyl)-1,1′-biphenyl-3-yl]-1H-pyrazole-3-carboxamide]: above 20 µM.

Values taken from US20050197338A1, “Substituted pyrazole urea compounds for the treatment of inflammation” (priority 2003, published 2005).
